Measurements reported in patent publication US7405317B2, “Phosphate-bearing prodrugs of sulfonyl hydrazines as hypoxia-selective antineoplastic agents” (priority 2004, dated 2008).

Experiments:
[1] = Short term stability as a function of pH and citrate buffer (HPLC); assay type: physicochemical; conditions: 20 mg/mL
Procedure: The stabilities of VNP40541 were investigated. The sample (20 mg/mL) was dissolved in 20 mM citric acid and titrated to pH 2.0, pH 3.0, pH 4.0, pH 5.0, pH 6.0, and pH 7.0. To control for buffer catalysis, the drug was also titrated to pH 2.0, pH 5.0, and pH 6.0 in the absence of citrate. The samples were stored at 40° C. for 3 hours, 24 hours, and 3 days, and at room temperature for 24 hours, 3 days. Upon completion of each time point, samples were placed in a freezer at −15° C. Control samples of each preparation were also stored in the freezer. Each sample was analyzed by HPLC repetitively, at various time points, to determine the concentration of the respective drug.

[2] = Maximum tolerated dose (MTD) finding; assay type: in vivo, mice
Procedure: In order to fairly select a better compound from two enantiomers of KS119W for future clinical development, finding maximum tolerated dose (MTD) for VNP40541 (R-form) and VNP40551 (S-form) was conducted and the results were shown as Table 3.

[3] = Toxicity of treatment in tumor-bearing mice (body weight, blood cell count, appearance); assay type: in vivo; conditions: three tumor models in mice, edema observed
Procedure: The anti-tumor effects of aforementioned prodrugs are evaluated in both solid and liquid tumor models, including the B16-F10 murine melanoma, HTB177 human lung carcinoma models, DLD1 human colon carcinoma, EMT-6 murine mammary gland carcinoma, L1210 murine leukemia, lymphoma, prostate cancer, pancreatic cancer, and head-and-neck cancer. The prodrugs are given intravenously, orally, or intraperitoneally at doses from 10 mg/kg to 2000 mg/kg; they are give at different dosing schedules such as 4 times daily, once daily, or once every several days for up to 60 doses. Testing tumor cells were implanted subcutaneously into mice, which were randomized into groups immediately after tumor cell implantation (Day 0). Mice were injected intraperitoneally (ip) with either a bolus injection of 0.1 mL PBS or drug. The treatment was carried out in a designed dosing schedule. Tumor measurement in three dimensions was determined once a week with the formula L×H×W/2, where L, H, and W represent length, height, and width, respectively. The toxicity of these drugs in mice was mild as determined by body weight loss and animal appearance.
Efficacies of KS119W and KS119 were compared with equivalence molar doses in EMT-6 tumor and H460 tumor models. KS119W was formulated with 0.25M sodium bicarbonate solution. The treatment was started when tumors researched 150 to 200 mm^3, and lasted up to 2 weeks. KS119 at doses of 80 and 100 mg/kg and KS119W at doses of 97.6 and 121.3 mg/kg were daily administrated into mice via ip injection. […] The toxicity of KS119 and KS119W were dose-dependent. To assess the toxicity of treatment, body weight and peripheral blood cell count were monitored after treatment.
Combined therapy of KS119W with cytoxan (CTX) was evaluated by using KS119W at dose below the MTD in combination with nontoxic dose of CTX against EMT-6 murine mammary carcinoma and H460 human lung carcinoma in CD-1 nude mice. The tumors were allowed to grow to a size of approximately 200 mm^3. In H460 tumor model, the animals received either with 4 doses 180 mg/kg and 1 dose 240 mg/kg of […] or CTX at dose of 100 mg/kg per dose per animal, ip injecting the drugs on 15, 22, 27, 34 and 43 days after the tumor implantation. In the combination studies, CTX was given two hours after dosing KS119W. […] The inhibition of combination therapy was statistically significant against all control groups with p values of 0.003, 0.015 and 0.038, respectively. Additive toxicity at the doses used for combination was manageable; while the 180 mg/kg qw ×4 doses of KS119W alone caused a maximum net body weight loss of 4.5%, the same dose in combination with 4 doses of CTX at 100 mg/kg per week caused 8.6% weight loss but no death. A similar degree of growth inhibition was also observed with EMT-6 tumor model. […]

C[C@@H](OC(=O)N(N(CCCl)S(C)(=O)=O)S(C)(=O)=O)c1ccc([N+](=O)[O-])c(OP(=O)(O)O)c1 [VNP40541]
Assay (HPLC, relative to control samples stored at −15° C.) ([1]; pH 2.0, citrate 20 mM, 3 hrs 40° C.): 98.8% | Assay (HPLC, relative to control samples stored at −15° C.) ([1]; pH 2.0, citrate 20 mM, 24 hrs 40° C.): 92.3% | Assay (HPLC, relative to control samples stored at −15° C.) ([1]; pH 2.0, citrate 20 mM, 24 hrs Room Temp.): 99.3% | Assay (HPLC, relative to control samples stored at −15° C.) ([1]; pH 2.0, citrate None, 3 hrs 40° C.): 98.9% | Assay (HPLC, relative to control samples stored at −15° C.) ([1]; pH 2.0, citrate None, 24 hrs 40° C.): 91.7% | Assay (HPLC, relative to control samples stored at −15° C.) ([1]; pH 2.0, citrate None, 24 hrs Room Temp.): 99.4% | Assay (HPLC, relative to control samples stored at −15° C.) ([1]; pH 3.0, citrate 20 mM, 3 hrs 40° C.): 98.9% | Assay (HPLC, relative to control samples stored at −15° C.) ([1]; pH 3.0, citrate 20 mM, 24 hrs 40° C.): 91.3% | Assay (HPLC, relative to control samples stored at −15° C.) ([1]; pH 3.0, citrate 20 mM, 24 hrs Room Temp.): 99.3% | Assay (HPLC, relative to control samples stored at −15° C.) ([1]; pH 4.0, citrate 20 mM, 3 hrs 40° C.): 99.8% | Assay (HPLC, relative to control samples stored at −15° C.) ([1]; pH 4.0, citrate 20 mM, 24 hrs 40° C.): 92.2% | Assay (HPLC, relative to control samples stored at −15° C.) ([1]; pH 4.0, citrate 20 mM, 24 hrs Room Temp.): 100.1% | Assay (HPLC, relative to control samples stored at −15° C.) ([1]; pH 5.0, citrate 20 mM, 3 hrs 40° C.): 98.8% | Assay (HPLC, relative to control samples stored at −15° C.) ([1]; pH 5.0, citrate 20 mM, 24 hrs 40° C.): 92.2% | Assay (HPLC, relative to control samples stored at −15° C.) ([1]; pH 5.0, citrate 20 mM, 24 hrs Room Temp.): 99.4% | Assay (HPLC, relative to control samples stored at −15° C.) ([1]; pH 5.0, citrate None, 3 hrs 40° C.): 99.4% | Assay (HPLC, relative to control samples stored at −15° C.) ([1]; pH 5.0, citrate None, 24 hrs 40° C.): 92.5% | Assay (HPLC, relative to control samples stored at −15° C.) ([1]; pH 5.0, citrate None, 24 hrs Room Temp.): 99.7% | Assay (HPLC, relative to control samples stored at −15° C.) ([1]; pH 6.0, citrate 20 mM, 3 hrs 40° C.): 99.0% | Assay (HPLC, relative to control samples stored at −15° C.) ([1]; pH 6.0, citrate 20 mM, 24 hrs 40° C.): 93.8% | Assay (HPLC, relative to control samples stored at −15° C.) ([1]; pH 6.0, citrate 20 mM, 24 hrs Room Temp.): 98.6% | Assay (HPLC, relative to control samples stored at −15° C.) ([1]; pH 6.0, citrate None, 3 hrs 40° C.): 99.3% | Assay (HPLC, relative to control samples stored at −15° C.) ([1]; pH 6.0, citrate None, 24 hrs 40° C.): 93.8% | Assay (HPLC, relative to control samples stored at −15° C.) ([1]; pH 6.0, citrate None, 24 hrs Room Temp.): 100.0% | Assay (HPLC, relative to control samples stored at −15° C.) ([1]; pH 7.0, citrate 20 mM, 3 hrs 40° C.): 99.6% | Assay (HPLC, relative to control samples stored at −15° C.) ([1]; pH 7.0, citrate 20 mM, 24 hrs 40° C.): 94.0% | Assay (HPLC, relative to control samples stored at −15° C.) ([1]; pH 7.0, citrate 20 mM, 24 hrs Room Temp.): 99.7% | MTD ([2]; BALB/c mice, × 5): 100 mpk | MTD ([2]; Nude CD-1 mice, × 10): 140 mpk | MTD ([2]; Scid/Beige mice, × 8): 110 mpk | toxicity compared between the enantiomers [3]: lower toxicity, particularly having less edema observed
